We go through 22 molecules from patent publication US7605227B2, “Melanoma antigen peptide analogues” (MannKind Corporation, priority 2005, dated 2009).

Square brackets hold non-standard residues; d marks the D form. Ends that are not written are not given here. Peptide text beside a SMILES is read from it. Bta = N[C@@H](Cc1csc2ccccc12)C(=O)O; Phg = N[C@H](C(=O)O)c1ccccc1; Nle = CCCC[C@H](N)C(=O)O; Nva = CCC[C@H](N)C(=O)O

The target of one assay is HLA-A*0201 (Homo sapiens, UniProt P04439, D140Y/D185E/D98H/E176V/E277Q/G131W/G231S/I119V/I121R/I166T/I218V/L300P/L318F/N151K/N90K/P208A/P217A/Q86G/Q94H/R138H/R169H/T345S). The assay is described as follows: Peptide binding using T2 cells (SSX-2 41-49 analogs). Particulars: half maximal binding of wild-type peptide relative to analog; native = 1.0.
Assay [1] relates to T cell lines against a natural (non-mutated) epitope (SSX-241-49). The experiment in a line: Cross-reactivity and functional avidity: IFN-gamma from T cell lines against natural SSX-2 41-49 epitope.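 Note: peptide analogs tested ex vivo with competent APCs, IFN-gamma in supernatant measured by ELISA, readouts include minimal triggering concentration, peak effect and concentration at peak.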 It counts as cell-based, HHD transgenic mice. The note with it: IFN-gamma from T cell line raised against native SSX-2 41-49; native = 1, lower = more active.

From the text for HLA-A*0201: Thus, at limiting concentrations of peptide, it is a measurement of Kon mostly and at saturation levels of peptide it is a measurement of both Kon and Koff.

Consider `CC[C@H](C)[C@H](NC(=O)[C@H](CCCCN)NC(=O)[C@H](CCC(=O)O)NC(=O)[C@H](CO)NC(=O)[C@H](C)NC(=O)[C@@H](N)c1ccccc1)C(=O)N[C@@H](Cc1ccccc1)C(=O)N[C@@H](Cc1ccc(O)cc1)C(=O)N[C@H](C(=O)O)C(C)C` [SSX2 41-49 (K41(Phg))] (H-[Phg]ASEKIFYV-OH), for which, on HLA-A*0201, the “Relative affinity (1/RA)” value worked out at 2.5. The “Cross-reactivity and fct avidity (native to analogs)*” value in assay [1] worked out at 0.1.

With KLSEKIFYI [SSX2 41-49 (A42L, V49I)], at HLA-A*0201, the “Relative affinity (1/RA)” value was 2.6. Besides, the “Cross-reactivity and fct avidity (native to analogs)*” value in assay [1] turned out to be 0.03.

Take `CCCC[C@H](NC(=O)[C@H](CCCCN)NC(=O)[C@H](CCC(=O)O)NC(=O)[C@H](CO)NC(=O)[C@@H](NC(=O)[C@@H](N)Cc1ccccc1)C(C)C)C(=O)N[C@@H](Cc1ccccc1)C(=O)N[C@@H](Cc1ccc(O)cc1)C(=O)N[C@H](C(=O)O)C(C)C` [SSX2 41-49 (K41F, A42V, I46Nle), FVSEK(Nle)FYV] (H-FVSEK[Nle]FYV-OH): at HLA-A*0201, the “Relative affinity (1/RA)” value is recorded as 1.1. In assay [1], the “Cross-reactivity and fct avidity (native to analogs)*” value amounted to 10.

As to FVSEKIFYV [SSX2 41-49 (K41F, A42V)], the “Relative affinity (1/RA)” value at HLA-A*0201 was determined as 3.1. The “Cross-reactivity and fct avidity (native to analogs)*” value in assay [1] was found to be 0.1.

FISEKIFYV [SSX2 41-49 (K41F, A42I)]: the “Relative affinity (1/RA)” value at HLA-A*0201 is given as 2.7. Further, the “Cross-reactivity and fct avidity (native to analogs)*” value in assay [1] was determined as 0.3.

Regarding `CCC[C@H](NC(=O)[C@H](CO)NC(=O)[C@@H](NC(=O)[C@@H](N)Cc1ccccc1)C(C)C)C(=O)N[C@@H](CCCCN)C(=O)N[C@H](C(=O)N[C@@H](Cc1ccccc1)C(=O)N[C@@H](Cc1ccc(O)cc1)C(=O)N[C@H](C(=O)O)C(C)C)[C@@H](C)CC` [SSX2 41-49 (K41F, A42V, E44Nva), FVS(Nva)KIFYV] (H-FVS[Nva]KIFYV-OH), the “Relative affinity (1/RA)” value at HLA-A*0201 came to 3.9. Moreover, the “Cross-reactivity and fct avidity (native to analogs)*” value in assay [1] is given as 3.

As for `CC[C@H](C)[C@H](NC(=O)[C@H](CCCCN)NC(=O)[C@H](CCC(=O)O)NC(=O)[C@H](CO)NC(=O)[C@@H](NC(=O)[C@@H](N)Cc1ccc(O)cc1)C(C)C)C(=O)N[C@@H](Cc1ccccc1)C(=O)N[C@@H](Cc1ccc(O)cc1)C(=O)N[C@H](C(=O)O)C(C)C` [SSX2 41-49 (K41Y, A42V)], the “Relative affinity (1/RA)” value at HLA-A*0201 is on record as 1.0. Moreover, the “Cross-reactivity and fct avidity (native to analogs)*” value in assay [1] is reported as 0.1.

Regarding “FVSEKLFTV [SSX2 41-49 (K41F, A42V, I46L, Y48T)]”, the “Relative affinity (1/RA)” value on HLA-A*0201 is recorded as 2.6. In addition, in assay [1], the “Cross-reactivity and fct avidity (native to analogs)*” value was above 10.

Consider `CC[C@H](C)[C@H](NC(=O)[C@H](CCCCN)NC(=O)[C@H](CCC(=O)O)NC(=O)[C@H](CO)NC(=O)[C@@H](NC(=O)[C@@H](N)Cc1ccccc1)C(C)C)C(=O)N[C@@H](Cc1ccccc1)C(=O)N[C@@H](Cc1ccccc1)C(=O)N[C@H](C(=O)O)C(C)C` [SSX2 41-49 (K41F, A42V, Y48F)], for which the “Relative affinity (1/RA)” value at HLA-A*0201 came to 1.7. Also, the “Cross-reactivity and fct avidity (native to analogs)*” value in assay [1] is 10.

As for `CC[C@H](C)[C@H](NC(=O)[C@H](CCCCN)NC(=O)[C@H](CCC(=O)O)NC(=O)[C@H](CO)NC(=O)[C@H](C)NC(=O)[C@@H](N)Cc1ccc(OC)cc1)C(=O)N[C@@H](Cc1ccccc1)C(=O)N[C@@H](Cc1ccc(O)cc1)C(=O)N[C@H](C(=O)O)C(C)C` [SSX2 41-49 (K41(O-methyl Tyr))] (H-Y(Me)ASEKIFYV-OH), the “Relative affinity (1/RA)” value on HLA-A*0201 came to 0.8. Also, the “Cross-reactivity and fct avidity (native to analogs)*” value in assay [1] came out at 3.

Turning to “FVSEKIFSV [SSX2 41-49 (K41F, A42V, Y48S)]”, the “Relative affinity (1/RA)” value at HLA-A*0201 turned out to be 3.9. In assay [1], the “Cross-reactivity and fct avidity (native to analogs)*” value is above 10.

Take `CC[C@H](C)[C@H](NC(=O)[C@H](CCCCN)NC(=O)[C@H](CCC(=O)O)NC(=O)[C@H](CO)NC(=O)[C@@H](NC(=O)[C@@H](N)Cc1ccccc1)C(C)C)C(=O)N[C@@H](Cc1ccccc1)C(=O)N[C@H](C(=O)N[C@H](C(=O)O)C(C)C)c1ccccc1` [SSX2 41-49 (K41F, A42V, Y48Phg), FVSEKIF(Phg)V] (H-FVSEKIF[Phg]V-OH): the “Relative affinity (1/RA)” value at HLA-A*0201 came to 2.5. Besides, in assay [1], the “Cross-reactivity and fct avidity (native to analogs)*” value was above 10.

With `CC[C@H](C)[C@H](NC(=O)[C@H](CCCCN)NC(=O)[C@H](CCC(=O)O)NC(=O)[C@H](CO)NC(=O)[C@H](C)NC(=O)[C@@H](N)Cc1csc2ccccc12)C(=O)N[C@@H](Cc1ccccc1)C(=O)N[C@@H](Cc1ccc(O)cc1)C(=O)N[C@H](C(=O)O)C(C)C` [SSX2 41-49 (K41(b-(3-benzothienyl)Ala))] (H-[Bta]ASEKIFYV-OH), the “Relative affinity (1/RA)” value at HLA-A*0201 is on record as 0.6. Further, the “Cross-reactivity and fct avidity (native to analogs)*” value in assay [1] was 10.

Take `CCCC[C@H](NC(=O)[C@H](CO)NC(=O)[C@@H](NC(=O)[C@@H](N)Cc1ccccc1)C(C)C)C(=O)N[C@@H](CCCCN)C(=O)N[C@H](C(=O)N[C@@H](Cc1ccccc1)C(=O)N[C@@H](Cc1ccc(O)cc1)C(=O)N[C@H](C(=O)O)C(C)C)[C@@H](C)CC` [SSX2 41-49 (K41F, A42V, E44Nle), FVS(Nle)KIFYV] (H-FVS[Nle]KIFYV-OH): the “Relative affinity (1/RA)” value at HLA-A*0201 came out at 1.1. In assay [1], the “Cross-reactivity and fct avidity (native to analogs)*” value is on record as 10.

For the molecule YLSEKIFYV [SSX2 41-49 (K41Y, A42L)], the “Relative affinity (1/RA)” value on HLA-A*0201 amounted to 1.2.

As to KASEKIFYI [SSX2 41-49 (V49I)], on HLA-A*0201, the “Relative affinity (1/RA)” value is reported as 1.0. Besides, in assay [1], the “Cross-reactivity and fct avidity (native to analogs)*” value is recorded as 10.

Regarding WVSEKIFYV [SSX2 41-49 (K41W, A42V)], the “Relative affinity (1/RA)” value at HLA-A*0201 was found to be 3.0. The “Cross-reactivity and fct avidity (native to analogs)*” value in assay [1] is 1.

Turning to “FVSEKIFTV [SSX2 41-49 (K41F, A42V, Y48T)]”, on HLA-A*0201, the “Relative affinity (1/RA)” value is 3.8. Besides, in assay [1], the “Cross-reactivity and fct avidity (native to analogs)*” value is above 10.

Take `CCC[C@H](NC(=O)[C@H](CCCCN)NC(=O)[C@H](CCC(=O)O)NC(=O)[C@H](CO)NC(=O)[C@@H](NC(=O)[C@@H](N)Cc1ccccc1)C(C)C)C(=O)N[C@@H](Cc1ccccc1)C(=O)N[C@@H](Cc1ccc(O)cc1)C(=O)N[C@H](C(=O)O)C(C)C` [SSX2 41-49 (K41F, A42V, I46Nva), FVSEK(Nva)FYV] (H-FVSEK[Nva]FYV-OH): the “Relative affinity (1/RA)” value at HLA-A*0201 came out at 2.4. For the same molecule, the “Cross-reactivity and fct avidity (native to analogs)*” value in assay [1] is reported as 1.

As for YMSEKIFYV [SSX2 41-49 (K41Y, A42M)], the “Relative affinity (1/RA)” value at HLA-A*0201 amounted to 0.6. Besides, the “Cross-reactivity and fct avidity (native to analogs)*” value in assay [1] came out at 3.

“FVSEKMFYV [SSX2 41-49 (K41F, A42V, I46M)]”: the “Cross-reactivity and fct avidity (native to analogs)*” value in assay [1] is on record as above 10.

On to `CC[C@H](C)[C@H](NC(=O)[C@H](CCCCN)NC(=O)[C@H](CCC(=O)O)NC(=O)[C@H](CO)NC(=O)[C@H](CC(C)C)NC(=O)[C@@H](N)CCCCN)C(=O)N[C@@H](Cc1ccccc1)C(=O)N[C@@H](Cc1ccc(O)cc1)C(=O)N[C@H](C(=O)O)C(C)C` [SSX2 41-49 (A42L)], for which, in assay [1], the “Cross-reactivity and fct avidity (native to analogs)*” value turned out to be 0.03.
